Measured values as given in patent publication US11530388B2, “Methods of engineering human induced pluripotent stem cells to produce liver tissue” (University of Pittsburgh—Of the Commonwealth System of …, priority 2017, dated 2022).

Legend:
[1] = tested on: Untransfected HEK293 cells; assay: Caspase 3/7 Assay after AP1903 stimulation of untransfected control cells; format: cell-based, human; conditions: untransfected HEK293 cells treated with AP1903
Description: (§1) HEK293 cells are transfected with pMSCV-F-del-Casp9_IRES-GFP (Addgene). • To assess transfection efficiency, cells are co-transfected with a TagRFP control plasmid ( 1/10 of total amount of DNA). • On day 3 transfected cells and negative control are monitored, counted and seeded (1E04 cells/96-well) for Caspase 3/7 Assay (Promega; G8091) Per Transfection/Negative Control cells were seeded as follows: • Per concentration small molecule (chemical inducer of dimerization) AP1903 (ApexBio) two wells, the same amount for negative control. For shuttle control, also wells per concentration are seeded. • On day 4, stimulation with AP1903 starts (0; 0,1; 1; 10 nmol/1). Shuttle control includes cells treated with ethanol only. T=0 h was measured immediately and T=24 h is measured as end point. (FIG. 13) • iCasp9-IRES-GFP construct is cloned with the rat albumin promoter pEAlb123. • iCasp9 expression (mRNA) is quantified in H4-II-E-C3 by qRT-PCR. Cells are transfected with plasmids pEAlb123-iCasp9-IRES-GFP and pcDNA3-CMV-eGFP (positive control). • Cells are harvested and RNA is isolated. iCASP9 and eGFP-specific PCR primers are used to measure expression (FIG. 14).

[2] = tested on: pMSCV-F-del Casp9-IRES-GFP transfected HEK293 cells (iCasp9); assay: Caspase 3/7 Assay after AP1903 stimulation of iCasp9-transfected cells; format: cell-based, human; conditions: compared to ethanol stimulated cells, 0, 0.1, 1, 10 nmol/l tested, 24 h end point
Excerpt: Because repopulated rat livers with human iPS-Heps can be reconstituted with both rodent cells and human cells, systems to maximize the human component to 100% of the livers and to purify human cells after perfusion/isolation of livers are beneficial. Suicide systems can be designed to potentiate these processes by efficiently inducing apoptosis in transduce cells. An inducible caspase-9 (iCasp9), encoded by a suicide gene engineered from human caspase-9, was incorporated. […]
as §1, with “For shuttle control, also wells per concentration are seeded. • On day 4, stimulation with AP1903 starts (0; 0,1; 1; 10 nmol/1). Shuttle control includes cells treated with ethanol only.” left out, “Cells are transfected with plasmids pEAlb123-iCasp9-IRES-GFP and pcDNA3-CMV-eGFP (positive control). • Cells are harvested and RNA is isolated. iCASP9 and eGFP-specific PCR primers are used to measure expression (FIG. 14).” left out

CC[C@@H](C(=O)N1CCCC[C@H]1C(=O)O[C@@H](CCc1ccc(OC)c(OC)c1)c1cccc(OCC(=O)NCCNC(=O)COc2cccc([C@@H](CCc3ccc(OC)c(OC)c3)OC(=O)[C@@H]3CCCCN3C(=O)[C@H](CC)c3cc(OC)c(OC)c(OC)c3)c2)c1)c1cc(OC)c(OC)c(OC)c1 [AP1903]
effect of AP1903 in Caspase 3/7 Assay [1]: did not show any effect
AP1903 concentration giving maximum effect in Caspase 3/7 Assay [2]: 1 nmol/L
